According to US4529737A, “Analgesic and anti-inflammatory arylalkanoic acid phthalidyl esters and pharmaceutical compositions thereof” (priority 1979, dated 1985):

assay: tail compression test in mice (analgesic activity); assay type: in vivo, mouse; parameters: unit not given here; conditions: values marked * (I, II, III, VII) are statistically significant
Excerpt: The tail compression test has been carried out in mice according to the method described by C. Bianchi (Brit. J. Pharmacol., 11, 104; 1956) by determining the time in seconds between the algic stimulation and the reaction of the mouse.

Structure (SMILES)	Analgesic activity DE50
CC(C)Cc1ccc(C(C)C(=O)O)cc1 (stereo not drawn) [Compound I, 2-(4-isobutylphenyl)propionic acid, reference compound]	5.28
CC(C)Cc1ccc(C(C)C(=O)OC2OC(=O)c3ccccc32)cc1 (stereo not drawn) [Compound IA, phthalidyl 2-(4-isobutylphenyl)propionate]	2.08
COc1ccc2cc([C@H](C)C(=O)O)ccc2c1 [Compound II, d-2-(6-methoxy-2-naphthyl)propionic acid, reference compound]	21.90
COc1ccc2cc(C(C)C(=O)OC3OC(=O)c4ccccc43)ccc2c1 (stereo not drawn) [Compound IIA, phthalidyl d-2-(6-methoxy-2-naphthyl)propionate]	5.81
CC(C(=O)O)c1cccc(C(=O)c2ccccc2)c1 (stereo not drawn) [Compound III, 2-(3-benzoylphenyl)propionic acid, reference compound]	3.01
CC(C(=O)OC1OC(=O)c2ccccc21)c1cccc(C(=O)c2ccccc2)c1 (stereo not drawn) [Compound IIIA, phthalidyl 2-(3-benzoylphenyl)propionate]	1.34
CC(C(=O)O)c1ccc(N2Cc3ccccc3C2=O)cc1 (stereo not drawn) [Compound IV, 2-[4-(1-oxo-2-isoindolinyl)phenyl]propionic acid, reference compound]	2.58
CC(C(=O)OC1OC(=O)c2ccccc21)c1ccc(N2Cc3ccccc3C2=O)cc1 (stereo not drawn) [Compound IVA, phthalidyl 2-[4-(1-oxo-2-isoindolinyl)phenyl]propionate]	2.18
C=CCOc1ccc(CC(=O)O)cc1Cl [Compound V, 4-allyloxy-3-chlorophenylacetic acid, reference compound]	2.43
C=CCOc1ccc(CC(=O)OC2OC(=O)c3ccccc32)cc1Cl (stereo not drawn) [Compound VA, phthalidyl 4-allyloxy-3-chlorophenylacetate]	2.50
O=C(O)Cc1ccccc1Nc1c(Cl)cccc1Cl [Compound VI, 2-(2,6-dichloroanilino)phenylacetic acid, reference compound]	3.81
O=C(Cc1ccccc1Nc1c(Cl)cccc1Cl)OC1OC(=O)c2ccccc21 (stereo not drawn) [Compound VIA, phtalidyl 2-(2,6-dichloroanilino)phenylacetate]	4.33
O=C(O)CCC(=O)c1ccc(-c2ccccc2)cc1 [Compound VII, 4-(4-biphenylyl)-4-oxobutyric acid, reference compound]	4.02
O=C(CCC(=O)c1ccc(-c2ccccc2)cc1)OC1OC(=O)c2ccccc21 (stereo not drawn) [Compound VIIA, phthalidyl 4-(4-biphenylyl)-4-oxobutyrate]	2.95
O=C(O)Cc1ccc(-c2ccccc2)cc1 [Compound VIII, 4-biphenylylacetic acid, reference compound]	3.07
O=C(Cc1ccc(-c2ccccc2)cc1)OC1OC(=O)c2ccccc21 (stereo not drawn) [Compound VIIIA, phtalidyl 4-biphenylylacetate]	2.78

assay: carrageenin-induced rat paw edema test (anti-inflammatory activity); assay type: in vivo; parameters: unit not given here; conditions: oral, one hour before 2% carrageenin, paw volume 5 hours after, values marked * (I, V, VI, VII, VIII) are statistically significant
Excerpt: For the determination of the anti-inflammatory activity, the carrageenin-induced rat paw edema test, as a modification of the method reported by C. A. Winth et al. (Proc. Soc. Exptl. Biol. Med., 111, 544; 1962) has been used. This method involves the reduction of the edema caused by the injection of a 2% carrageenin solution in the rat paw. The compounds under examination have been administered by oral route one hour before the injection of the edemigenic agent. The volume of the rat paw has been measured by a plethismometer before and 5 hours after the injection of the carrageenin.

Structure (SMILES)	Anti-inflammatory activity DE50
CC(C)Cc1ccc(C(C)C(=O)O)cc1 (stereo not drawn) [Compound I, 2-(4-isobutylphenyl)propionic acid, reference compound]	59.14
CC(C)Cc1ccc(C(C)C(=O)OC2OC(=O)c3ccccc32)cc1 (stereo not drawn) [Compound IA, phthalidyl 2-(4-isobutylphenyl)propionate]	4.30
COc1ccc2cc([C@H](C)C(=O)O)ccc2c1 [Compound II, d-2-(6-methoxy-2-naphthyl)propionic acid, reference compound]	16.36
COc1ccc2cc(C(C)C(=O)OC3OC(=O)c4ccccc43)ccc2c1 (stereo not drawn) [Compound IIA, phthalidyl d-2-(6-methoxy-2-naphthyl)propionate]	14.82
CC(C(=O)O)c1cccc(C(=O)c2ccccc2)c1 (stereo not drawn) [Compound III, 2-(3-benzoylphenyl)propionic acid, reference compound]	4.36
CC(C(=O)OC1OC(=O)c2ccccc21)c1cccc(C(=O)c2ccccc2)c1 (stereo not drawn) [Compound IIIA, phthalidyl 2-(3-benzoylphenyl)propionate]	5.15
CC(C(=O)O)c1ccc(N2Cc3ccccc3C2=O)cc1 (stereo not drawn) [Compound IV, 2-[4-(1-oxo-2-isoindolinyl)phenyl]propionic acid, reference compound]	5.45
CC(C(=O)OC1OC(=O)c2ccccc21)c1ccc(N2Cc3ccccc3C2=O)cc1 (stereo not drawn) [Compound IVA, phthalidyl 2-[4-(1-oxo-2-isoindolinyl)phenyl]propionate]	4.45
C=CCOc1ccc(CC(=O)O)cc1Cl [Compound V, 4-allyloxy-3-chlorophenylacetic acid, reference compound]	1058.45
C=CCOc1ccc(CC(=O)OC2OC(=O)c3ccccc32)cc1Cl (stereo not drawn) [Compound VA, phthalidyl 4-allyloxy-3-chlorophenylacetate]	117.34
O=C(O)Cc1ccccc1Nc1c(Cl)cccc1Cl [Compound VI, 2-(2,6-dichloroanilino)phenylacetic acid, reference compound]	189.54
O=C(Cc1ccccc1Nc1c(Cl)cccc1Cl)OC1OC(=O)c2ccccc21 (stereo not drawn) [Compound VIA, phtalidyl 2-(2,6-dichloroanilino)phenylacetate]	144.21
O=C(O)CCC(=O)c1ccc(-c2ccccc2)cc1 [Compound VII, 4-(4-biphenylyl)-4-oxobutyric acid, reference compound]	30.53
O=C(CCC(=O)c1ccc(-c2ccccc2)cc1)OC1OC(=O)c2ccccc21 (stereo not drawn) [Compound VIIA, phthalidyl 4-(4-biphenylyl)-4-oxobutyrate]	20.08
O=C(O)Cc1ccc(-c2ccccc2)cc1 [Compound VIII, 4-biphenylylacetic acid, reference compound]	21.79
O=C(Cc1ccc(-c2ccccc2)cc1)OC1OC(=O)c2ccccc21 (stereo not drawn) [Compound VIIIA, phtalidyl 4-biphenylylacetate]	13.28

assay: ulcerogenic activity in rats (DU50); conditions: rat, in vivo
Excerpt: The ulcerogenic activity is expressed as DU50 in rats according to the method described by Dabrodie et al (Science, 170, 183; 1970).

Structure (SMILES)	TD50 [mg/kg]
CC(C)Cc1ccc(C(C)C(=O)O)cc1 (stereo not drawn) [Compound I, 2-(4-isobutylphenyl)propionic acid, reference compound]	85.9
CC(C)Cc1ccc(C(C)C(=O)OC2OC(=O)c3ccccc32)cc1 (stereo not drawn) [Compound IA, phthalidyl 2-(4-isobutylphenyl)propionate]	144
COc1ccc2cc(C(C)C(=O)OC3OC(=O)c4ccccc43)ccc2c1 (stereo not drawn) [Compound IIA, phthalidyl d-2-(6-methoxy-2-naphthyl)propionate]	133
CC(C(=O)OC1OC(=O)c2ccccc21)c1cccc(C(=O)c2ccccc2)c1 (stereo not drawn) [Compound IIIA, phthalidyl 2-(3-benzoylphenyl)propionate]	76.7
CC(C(=O)O)c1ccc(N2Cc3ccccc3C2=O)cc1 (stereo not drawn) [Compound IV, 2-[4-(1-oxo-2-isoindolinyl)phenyl]propionic acid, reference compound]	51.1
CC(C(=O)OC1OC(=O)c2ccccc21)c1ccc(N2Cc3ccccc3C2=O)cc1 (stereo not drawn) [Compound IVA, phthalidyl 2-[4-(1-oxo-2-isoindolinyl)phenyl]propionate]	116
C=CCOc1ccc(CC(=O)O)cc1Cl [Compound V, 4-allyloxy-3-chlorophenylacetic acid, reference compound]	214
C=CCOc1ccc(CC(=O)OC2OC(=O)c3ccccc32)cc1Cl (stereo not drawn) [Compound VA, phthalidyl 4-allyloxy-3-chlorophenylacetate]	380
O=C(Cc1ccccc1Nc1c(Cl)cccc1Cl)OC1OC(=O)c2ccccc21 (stereo not drawn) [Compound VIA, phtalidyl 2-(2,6-dichloroanilino)phenylacetate]	26.1
O=C(O)CCC(=O)c1ccc(-c2ccccc2)cc1 [Compound VII, 4-(4-biphenylyl)-4-oxobutyric acid, reference compound]	78.7
O=C(CCC(=O)c1ccc(-c2ccccc2)cc1)OC1OC(=O)c2ccccc21 (stereo not drawn) [Compound VIIA, phthalidyl 4-(4-biphenylyl)-4-oxobutyrate]	146
O=C(O)Cc1ccc(-c2ccccc2)cc1 [Compound VIII, 4-biphenylylacetic acid, reference compound]	65.3
O=C(Cc1ccc(-c2ccccc2)cc1)OC1OC(=O)c2ccccc21 (stereo not drawn) [Compound VIIIA, phtalidyl 4-biphenylylacetate]	186

same assay, conditions: rat, in vivo; rats; head DU50*: data statistically significant; read-out: DU50 ulcerogenic activity

Structure (SMILES)	TD50 [mg/kg]
COc1ccc2cc([C@H](C)C(=O)O)ccc2c1 [Compound II, d-2-(6-methoxy-2-naphthyl)propionic acid, reference compound]	78.7
CC(C(=O)O)c1cccc(C(=O)c2ccccc2)c1 (stereo not drawn) [Compound III, 2-(3-benzoylphenyl)propionic acid, reference compound]	31.5
O=C(O)Cc1ccccc1Nc1c(Cl)cccc1Cl [Compound VI, 2-(2,6-dichloroanilino)phenylacetic acid, reference compound]	13.1

assay: not given; conditions: head DL50*: data statistically significant

Structure (SMILES)	DL50 acute toxicity, rat [mg/kg]
CC(C)Cc1ccc(C(C)C(=O)O)cc1 (stereo not drawn) [Compound I, 2-(4-isobutylphenyl)propionic acid, reference compound]	1480.00

assay: in vivo; conditions: mouse

Structure (SMILES)	LD50 [mg/kg]
CC(C)Cc1ccc(C(C)C(=O)OC2OC(=O)c3ccccc32)cc1 (stereo not drawn) [Compound IA, phthalidyl 2-(4-isobutylphenyl)propionate]	1540
COc1ccc2cc(C(C)C(=O)OC3OC(=O)c4ccccc43)ccc2c1 (stereo not drawn) [Compound IIA, phthalidyl d-2-(6-methoxy-2-naphthyl)propionate]	2140
CC(C(=O)OC1OC(=O)c2ccccc21)c1cccc(C(=O)c2ccccc2)c1 (stereo not drawn) [Compound IIIA, phthalidyl 2-(3-benzoylphenyl)propionate]	514
CC(C(=O)O)c1ccc(N2Cc3ccccc3C2=O)cc1 (stereo not drawn) [Compound IV, 2-[4-(1-oxo-2-isoindolinyl)phenyl]propionic acid, reference compound]	536
CC(C(=O)OC1OC(=O)c2ccccc21)c1ccc(N2Cc3ccccc3C2=O)cc1 (stereo not drawn) [Compound IVA, phthalidyl 2-[4-(1-oxo-2-isoindolinyl)phenyl]propionate]	987
C=CCOc1ccc(CC(=O)OC2OC(=O)c3ccccc32)cc1Cl (stereo not drawn) [Compound VA, phthalidyl 4-allyloxy-3-chlorophenylacetate]	2060
O=C(Cc1ccccc1Nc1c(Cl)cccc1Cl)OC1OC(=O)c2ccccc21 (stereo not drawn) [Compound VIA, phtalidyl 2-(2,6-dichloroanilino)phenylacetate]	593
O=C(CCC(=O)c1ccc(-c2ccccc2)cc1)OC1OC(=O)c2ccccc21 (stereo not drawn) [Compound VIIA, phthalidyl 4-(4-biphenylyl)-4-oxobutyrate]	1400
O=C(O)Cc1ccc(-c2ccccc2)cc1 [Compound VIII, 4-biphenylylacetic acid, reference compound]	750
O=C(Cc1ccc(-c2ccccc2)cc1)OC1OC(=O)c2ccccc21 (stereo not drawn) [Compound VIIIA, phtalidyl 4-biphenylylacetate]	1410

assay: in vivo; conditions: rat

Structure (SMILES)	LD50 [mg/kg]
CC(C)Cc1ccc(C(C)C(=O)OC2OC(=O)c3ccccc32)cc1 (stereo not drawn) [Compound IA, phthalidyl 2-(4-isobutylphenyl)propionate]	2180
COc1ccc2cc(C(C)C(=O)OC3OC(=O)c4ccccc43)ccc2c1 (stereo not drawn) [Compound IIA, phthalidyl d-2-(6-methoxy-2-naphthyl)propionate]	1060
CC(C(=O)OC1OC(=O)c2ccccc21)c1cccc(C(=O)c2ccccc2)c1 (stereo not drawn) [Compound IIIA, phthalidyl 2-(3-benzoylphenyl)propionate]	342
CC(C(=O)O)c1ccc(N2Cc3ccccc3C2=O)cc1 (stereo not drawn) [Compound IV, 2-[4-(1-oxo-2-isoindolinyl)phenyl]propionic acid, reference compound]	62.3
CC(C(=O)OC1OC(=O)c2ccccc21)c1ccc(N2Cc3ccccc3C2=O)cc1 (stereo not drawn) [Compound IVA, phthalidyl 2-[4-(1-oxo-2-isoindolinyl)phenyl]propionate]	234
C=CCOc1ccc(CC(=O)OC2OC(=O)c3ccccc32)cc1Cl (stereo not drawn) [Compound VA, phthalidyl 4-allyloxy-3-chlorophenylacetate]	1770
O=C(Cc1ccccc1Nc1c(Cl)cccc1Cl)OC1OC(=O)c2ccccc21 (stereo not drawn) [Compound VIA, phtalidyl 2-(2,6-dichloroanilino)phenylacetate]	342
O=C(CCC(=O)c1ccc(-c2ccccc2)cc1)OC1OC(=O)c2ccccc21 (stereo not drawn) [Compound VIIA, phthalidyl 4-(4-biphenylyl)-4-oxobutyrate]	1380
O=C(O)Cc1ccc(-c2ccccc2)cc1 [Compound VIII, 4-biphenylylacetic acid, reference compound]	635
O=C(Cc1ccc(-c2ccccc2)cc1)OC1OC(=O)c2ccccc21 (stereo not drawn) [Compound VIIIA, phtalidyl 4-biphenylylacetate]	1170
